Test results taken from US6277847A, “Herbicidal isoindolinonyl-and 3,4-dihydroisoquinolonyl-substituted heterocycles” (FMC Corporation, priority 2000, dated 2001).

Key:
Format in all cases: in vivo
[1] = system: soybean (Glycine max -- var. Winchester); assay: pre-emergence herbicidal activity, soybean; settings: 1 kg/Ha, about fourteen days, read-out: pre-emergence herbicidal activity (% control) SOY
In short: (§1)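 Seeds sown in soil flats and sprayed pre-emergence with a water/acetone solution of test compound at 1 kg/Ha; untreated controls kept alongside. Phytotoxicity scored after about fourteen days as percent control, 0 being no effect and 100 complete control.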

[2] = system: wheat (Triticum aestivum var. Lew); assay: pre-emergence herbicidal activity, wheat; settings: 1 kg/Ha, about fourteen days, read-out: pre-emergence herbicidal activity (% control) WHT
In short: as §1

[3] = system: field corn (Zea mays var. Pioneer 3732); assay: pre-emergence herbicidal activity, corn; settings: 1 kg/Ha, about fourteen days, read-out: pre-emergence herbicidal activity (% control) CRN
In short: as §1

[4] = system: velvetleaf (Abutilon theophrasti); assay: pre-emergence herbicidal activity, velvetleaf; settings: 1 kg/Ha, about fourteen days, read-out: pre-emergence herbicidal activity (% control) ABUTH
In short: as §1

[5] = system: morningglory (Ipomea lacunosa or Ipomea hederacea); assay: pre-emergence herbicidal activity, morningglory; settings: Ipomoea, 1 kg/Ha, about fourteen days, read-out: pre-emergence herbicidal activity (% control) IPOSS
In short: as §1

[6] = system: common chickweed (Stellaria media); assay: pre-emergence herbicidal activity, chickweed; settings: 1 kg/Ha, about fourteen days, read-out: pre-emergence herbicidal activity (% control) STEME
In short: as §1

[7] = system: common cocklebur (Xanthium strumarium L.); assay: pre-emergence herbicidal activity, cocklebur; settings: 1 kg/Ha, about fourteen days, read-out: pre-emergence herbicidal activity (% control) XANPE
In short: as §1

[8] = system: green foxtail (Setaria viridis); assay: pre-emergence herbicidal activity, green foxtail; settings: 1 kg/Ha, about fourteen days, read-out: pre-emergence herbicidal activity (% control) SETVI
In short: as §1

[9] = system: soybean (Glycine max -- var. Winchester); assay: post-emergence herbicidal activity, soybean; settings: 1 Kg/Ha, about fourteen days, read-out: post-emergence herbicidal activity (% control) SOY
In short: (§2)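 Percent control (0–100) was rated about fourteen days after spraying of emerged, germinated plants in flats with compound dissolved in water/acetone at 1 Kg/Ha.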

[10] = system: wheat (Triticum aestivum var. Lew); assay: post-emergence herbicidal activity, wheat; settings: 1 Kg/Ha, about fourteen days, read-out: post-emergence herbicidal activity (% control) WHT
In short: as §2

[11] = system: field corn (Zea mays var. Pioneer 3732); assay: post-emergence herbicidal activity, corn; settings: 1 Kg/Ha, about fourteen days, read-out: post-emergence herbicidal activity (% control) CRN
In short: as §2

[12] = system: velvetleaf (Abutilon theophrasti); assay: post-emergence herbicidal activity, velvetleaf; settings: 1 Kg/Ha, about fourteen days, read-out: post-emergence herbicidal activity (% control) ABUTH
In short: as §2

[13] = system: morningglory (Ipomea lacunosa or Ipomea hederacea); assay: post-emergence herbicidal activity, morningglory; settings: Ipomoea, 1 Kg/Ha, about fourteen days, read-out: post-emergence herbicidal activity (% control) IPOSS
In short: as §2

[14] = system: common chickweed (Stellaria media); assay: post-emergence herbicidal activity, chickweed; settings: 1 Kg/Ha, about fourteen days, read-out: post-emergence herbicidal activity (% control) STEME
In short: as §2

[15] = system: common cocklebur (Xanthium strumarium L.); assay: post-emergence herbicidal activity, cocklebur; settings: 1 Kg/Ha, about fourteen days, read-out: post-emergence herbicidal activity (% control) XANPE
In short: as §2

[16] = system: blackgrass (Aloepecurus myosuroides); assay: post-emergence herbicidal activity, blackgrass; settings: Alopecurus myosuroides, 1 Kg/Ha, about fourteen days, read-out: post-emergence herbicidal activity (% control) ALOMY
Procedure: This example sets forth the methods of herbicidal testing conducted on the specific compounds set forth below. Specifically, the compounds referenced below were tested for pre- and post-emergence herbicidal activity using a variety of crops and weeds. The test plants include, but are not limited to, soybean (Glycine max -- var. Winchester), field corn (Zea mays var. Pioneer 3732), wheat (Triticum aestivum var. Lew), morningglory (Ipomea lacunosa or Ipomea hederacea), velvetleaf (Abutilon theophrasti), green foxtail (Setaria viridis), Johnsongrass (Sorghum halepense), blackgrass (Aloepecurus myosuroides), common chickweed (Stellaria media), and common cocklebur (Xanthium strumarium L.).
In the post-emergence test, seeds of the plant species named above were planted in flats containing the appropriate soil mixture where they were maintained to allow the seeds to germinate. When the plants in these flats reached the proper stage of growth, flats for the pre-emergence tests were planted in a like manner. The flats containing the post-emergence and pre-emergence test plant species were then sprayed with an appropriately concentrated water/acetone solution of test compound. Once treated the flats were maintained, along with untreated controls, for about fourteen days. All treated plants were then examined for phytotoxicity, which was expressed as percent control where 0 is no effect and 100 is complete control. Effective rates of application for the compounds of the present invention range from 0.001 to 3 kg/ha, more likely from […] to 1 Kg/ha.
Herbicidal activity data at selected application rates are in Tables 4 and 5. The test compounds are identified by numbers correspond to those in Table 1.
SOY is soybean, WHT is wheat, CRN is corn, ABUTH is velvetleaf, IPOSS is
morningglory, STEME is chickweed, XANPE is cocklebur, ALOMY is blackgrass,
Rate of application of test compound is 1 Kg/Ha. The definitions as shown under Table 4 apply to Table 5.

[17] = system: green foxtail (Setaria viridis); assay: post-emergence herbicidal activity, green foxtail; settings: 1 Kg/Ha, about fourteen days, read-out: post-emergence herbicidal activity (% control) SETVI
In short: as §2

[18] = system: Johnsongrass (Sorghum halepense); assay: post-emergence herbicidal activity, johnsongrass; settings: 1 Kg/Ha, about fourteen days, read-out: post-emergence herbicidal activity (% control) SORHA
In short: as §2

[19] = system: blackgrass (Aloepecurus myosuroides); assay: pre-emergence herbicidal activity, blackgrass; settings: Alopecurus myosuroides, 1 kg/Ha, about fourteen days, read-out: pre-emergence herbicidal activity (% control) ALOMY
In short: as §1

| Structure (SMILES) | activity at 1000 g/ha [1] [%] | activity at 1000 g/ha [2] [%] | activity at 1000 g/ha [3] [%] | activity at 1000 g/ha [4] [%] | activity at 1000 g/ha [5] [%] | activity at 1000 g/ha [6] [%] | activity at 1000 g/ha [7] [%] | activity at 1000 g/ha [8] [%] | activity at 1000 g/ha [9] [%] | activity at 1000 g/ha [10] [%] | activity at 1000 g/ha [11] [%] | activity at 1000 g/ha [12] [%] | activity at 1000 g/ha [13] [%] | activity at 1000 g/ha [14] [%] | activity at 1000 g/ha [15] [%] | activity at 1000 g/ha [16] [%] | activity at 1000 g/ha [17] [%] | activity at 1000 g/ha [18] [%] | activity at 1000 g/ha [19] [%] |
| --- | --- | --- | --- | --- | --- | --- | --- | --- | --- | --- | --- | --- | --- | --- | --- | --- | --- | --- | --- |
| COCCN1Cc2c(-n3c(=O)cc(C(F)(F)F)n(C)c3=O)ccc(Cl)c2C1=O [Compound 23] | 100 | 100 | 100 | 100 | 100 | 100 | 100 | 100 | 100 | 100 | 80 | 100 | 100 | 100 | 100 | 100 | 100 | 100 | – |
| Cn1c(C(F)(F)F)cc(=O)n(-c2ccc(Cl)c3c2CN(Cc2ccc(Cl)cc2)C3=O)c1=O [Compound 24] | 10 | 30 | 50 | 100 | 30 | 70 | 10 | 95 | 60 | 30 | 70 | 100 | 30 | 100 | 80 | 70 | 70 | 40 | – |
| CC(C)N1Cc2c(c(Cl)cc(Cl)c2N2C(=O)C3=C(CCCC3)C2=O)C1=O [Compound 82, 1-[5,7-dichloro-2-(1-methylethyl)isoindolin-1-on-4-yl]-3,4,5,6-tetrahydrophthalimide] | 70 | 60 | 80 | 100 | 100 | 100 | 95 | 100 | 60 | 40 | 65 | 100 | 95 | 85 | 100 | 100 | 100 | – | 70 |
| CC(C)N1Cc2c(-n3nc4n(c3=O)CCCC4)ccc(Cl)c2C1=O [Compound 83, 2-[7-chloro-2-(1-methylethyl)isoindolin-1-on-4-yl]-5,6,7,8-tetrahydro-1,2,4-triazolo[4,3-A]pyridin-3(2H)-one] | 5 | 10 | 0 | 100 | 60 | 100 | 30 | 60 | 80 | 30 | 60 | 100 | 90 | 80 | 60 | 50 | 60 | – | 50 |
